Assay results published in ChEMBL document CHEMBL4145540 (Eur J Med Chem, 2018).
pIC50: −log10 of the molar value. The source made the active and inactive calls. The rule behind the calls is not given here.

Assays:
HT-29 = test: Antiproliferative activity against human HT-29 cells after 2 days by MTT assay; type: functional, cell-based; conditions: HT-29, 48 h
MCF7 = test: Antiproliferative activity against human MCF7 cells after 2 days by MTT assay; type: functional, cell-based; conditions: MCF7, 48 h
HeLa = test: Antiproliferative activity against human HeLa cells after 2 days by MTT assay; type: functional, cell-based; conditions: 48 h
A549 [1] = test: Antiproliferative activity against human A549 cells after 2 days by MTT assay; type: functional, cell-based; conditions: A549, 48 h
HL-60 = test: Antiproliferative activity against human HL60 cells after 2 days by MTT assay; type: functional, cell-based; conditions: HL-60, 48 h
HMEC-1 [2] = test: Antiproliferative activity against HMEC1 cells after 2 days by MTT assay; type: functional, cell-based; conditions: Homo sapiens, HMEC-1, 48 h
HEK293 = test: Antiproliferative activity against HEK293 cells after 2 days by MTT assay; type: cell-based; conditions: Homo sapiens, HEK293, 48 h
MDA-MB-231 [3] = test: Antiproliferative activity against human MDA-MB-231 cells after 3 days by coulter counting method; type: functional, cell-based; conditions: MDA-MB-231, 72 h
[4] = Selectivity index, ratio of IC50 for antiproliferative activity against HEK293 cells to IC50 for antiproliferative activity against human MCF7 cells; type: toxicity, cell-based; conditions: HEK293 cells versus MCF7 cells, read-out: Ratio IC50
[5] = Selectivity index, ratio of IC50 for antiproliferative activity against HEK293 cells to IC50 for antiproliferative activity against human HT-29 cells; type: toxicity, cell-based; conditions: HEK293 cells versus HT-29 cells, read-out: Ratio IC50
[6] = Selectivity index, ratio of IC50 for antiproliferative activity against HEK293 cells to IC50 for antiproliferative activity against human HeLa cells; type: toxicity, cell-based; conditions: HEK293 cells versus HeLa cells, read-out: Ratio IC50
[7] = Selectivity index, ratio of IC50 for antiproliferative activity against HEK293 cells to IC50 for antiproliferative activity against human HL60 cells; type: toxicity, cell-based; conditions: HEK293 cells versus HL60 cells, read-out: Ratio IC50
A549 [8] = test: Cell cycle arrest in human A549 cells assessed as accumulation at sub-G0 phase at 200 nM after 20 hrs by propidium iodide staining based flow cytometry (reference value: 6.6 +/- 0.1%); type: functional
A549 [9] = test: Cell cycle arrest in human A549 cells assessed as accumulation at G0/G1 phase at 200 nM after 20 hrs by propidium iodide staining based flow cytometry (reference value: 66 +/- 1%); type: functional
A549 [10] = test: Cell cycle arrest in human A549 cells assessed as accumulation at S phase at 200 nM after 20 hrs by propidium iodide staining based flow cytometry (reference value: 16 +/- 1%); type: functional
A549 [11] = test: Cell cycle arrest in human A549 cells assessed as accumulation at G2/M phase at 200 nM after 20 hrs by propidium iodide staining based flow cytometry (reference value: 11 +/- 1%); type: functional
Bos taurus [12] = species: Bos taurus; test: Inhibition of calf brain tubulin polymerization after 60 mins by turbidimetric method
Bos taurus [13] = species: Bos taurus; test: Inhibition of calf brain tubulin polymerization in glycerol-assembly buffer assessed as critical concentration for tubulin assembly at 27.5 uM measured every 30 secs for 2 hrs in presence of GTP
A549 [14] = test: Cell cycle arrest in human A549 cells assessed as accumulation at sub-G0 phase at 50 nM after 20 hrs by propidium iodide staining based flow cytometry (reference value: 6.6 +/- 0.1%); type: functional
A549 [15] = test: Cell cycle arrest in human A549 cells assessed as accumulation at G0/G1 phase at 50 nM after 20 hrs by propidium iodide staining based flow cytometry (reference value: 66 +/- 1%); type: functional
A549 [16] = test: Cell cycle arrest in human A549 cells assessed as accumulation at S phase at 50 nM after 20 hrs by propidium iodide staining based flow cytometry (reference value: 16 +/- 1%); type: functional
A549 [17] = test: Cell cycle arrest in human A549 cells assessed as accumulation at G2/M phase at 50 nM after 20 hrs by propidium iodide staining based flow cytometry (reference value: 11 +/- 1%); type: functional
A549 [18] = test: Cell cycle arrest in human A549 cells assessed as accumulation at sub-G0 phase at 750 nM after 20 hrs by propidium iodide staining based flow cytometry (reference value: 6.6 +/- 0.1%); type: functional
A549 [19] = test: Cell cycle arrest in human A549 cells assessed as accumulation at S phase at 750 nM after 20 hrs by propidium iodide staining based flow cytometry (reference value: 16 +/- 1%); type: functional
A549 [20] = test: Cell cycle arrest in human A549 cells assessed as accumulation at G2/M phase at 750 nM after 20 hrs by propidium iodide staining based flow cytometry (reference value: 11 +/- 1%); type: functional
A549 [21] = test: Cell cycle arrest in human A549 cells assessed as accumulation at sub-G0 phase at 80 nM after 20 hrs by propidium iodide staining based flow cytometry (reference value: 6.6 +/- 0.1%); type: functional
A549 [22] = test: Cell cycle arrest in human A549 cells assessed as accumulation at G0/G1 phase at 80 nM after 20 hrs by propidium iodide staining based flow cytometry (reference value: 66 +/- 1%); type: functional
A549 [23] = test: Cell cycle arrest in human A549 cells assessed as accumulation at S phase at 80 nM after 20 hrs by propidium iodide staining based flow cytometry (reference value: 16 +/- 1%); type: functional
A549 [24] = test: Cell cycle arrest in human A549 cells assessed as accumulation at G2/M phase at 80 nM after 20 hrs by propidium iodide staining based flow cytometry (reference value: 11 +/- 1%); type: functional
A549 [25] = test: Induction of apoptosis in human A549 cells at 100 nM after 24 hrs by Annexin V-FITC/propidium iodide staining based flow cytometry (reference value: 28%); type: functional
A549 [26] = test: Induction of apoptosis in human A549 cells at 10 nM after 24 hrs by Annexin V-FITC/propidium iodide staining based flow cytometry (reference value: 28%); type: functional
A549 [27] = test: Induction of apoptosis in human A549 cells after 24 hrs by Annexin V-FITC/propidium iodide staining based flow cytometry; type: functional, cell-based
MDA-MB-231 [28] = test: Inhibition of EBI binding to beta-tubulin colchicine binding site in human MDA-MB-231 cells at 3 uM preincubated for 16 hrs followed by EBI addition and measured after 1.5 hrs by Western blot analysis; type: cell-based
A549 [29] = test: Cell cycle arrest in human A549 cells assessed as accumulation at sub-G0 phase at 75 nM after 20 hrs by propidium iodide staining based flow cytometry (reference value: 6.6 +/- 0.1%); type: functional
A549 [30] = test: Cell cycle arrest in human A549 cells assessed as accumulation at G0/G1 phase at 75 nM after 20 hrs by propidium iodide staining based flow cytometry (reference value: 66 +/- 1%); type: functional
A549 [31] = test: Cell cycle arrest in human A549 cells assessed as accumulation at S phase at 75 nM after 20 hrs by propidium iodide staining based flow cytometry (reference value: 16 +/- 1%); type: functional
A549 [32] = test: Cell cycle arrest in human A549 cells assessed as accumulation at G2/M phase at 75 nM after 20 hrs by propidium iodide staining based flow cytometry (reference value: 11 +/- 1%); type: functional
HMEC-1 [33] = test: Vascular disruptive activity in HMEC1 cells assessed as disruption of preformed tubular networks after 4 hrs by matrigel based assay; type: functional, cell-based; conditions: Homo sapiens
A549 [34] = test: Disruption of microtubule network in human A549 cells assessed as appearance of tubulin aggregates at 260 nM after 16 hrs by Hoechst staining based immunofluorescence assay; type: cell-based
A549 [35] = test: Disruption of microtubule network in human A549 cells assessed as appearance of compressed and fragmented nuclei at 260 nM after 16 hrs by Hoechst staining based immunofluorescence assay; type: cell-based
A549 [36] = test: Cell cycle arrest in human A549 cells assessed as accumulation at sub-G0 phase at 65 nM after 20 hrs by propidium iodide staining based flow cytometry (reference value: 6.6 +/- 0.1%); type: functional
A549 [37] = test: Cell cycle arrest in human A549 cells assessed as accumulation at G0/G1 phase at 65 nM after 20 hrs by propidium iodide staining based flow cytometry (reference value: 66 +/- 1%); type: functional
A549 [38] = test: Cell cycle arrest in human A549 cells assessed as accumulation at S phase at 65 nM after 20 hrs by propidium iodide staining based flow cytometry (reference value: 16 +/- 1%); type: functional
A549 [39] = test: Cell cycle arrest in human A549 cells assessed as accumulation at G2/M phase at 65 nM after 20 hrs by propidium iodide staining based flow cytometry (reference value: 11 +/- 1%); type: functional
A549 [40] = test: Cell cycle arrest in human A549 cells assessed as accumulation at sub-G0 phase at 70 nM after 20 hrs by propidium iodide staining based flow cytometry (reference value: 6.6 +/- 0.1%); type: functional
A549 [41] = test: Cell cycle arrest in human A549 cells assessed as accumulation at S phase at 70 nM after 20 hrs by propidium iodide staining based flow cytometry (reference value: 16 +/- 1%); type: functional
A549 [42] = test: Cell cycle arrest in human A549 cells assessed as accumulation at G2/M phase at 70 nM after 20 hrs by propidium iodide staining based flow cytometry (reference value: 11 +/- 1%); type: functional

SMILES	pIC50 (HT-29)	pIC50 (MCF7)	pIC50 (HeLa)	pIC50 (A549 [1])	pIC50 (HL-60)	pIC50 (HMEC-1 [2])	pIC50 (HEK293)	pIC50 (MDA-MB-231 [3])	selectivity ratio [4]	selectivity ratio [5]	selectivity ratio [6]	selectivity ratio [7]	Activity (A549 [25]) [%]	Activity (A549 [26]) [%]	Activity (A549 [27])	inhibition (MDA-MB-231 [28])	further results
COc1ccc(/C=C\c2cc(OC)c(OC)c(OC)c2)cc1NC(=O)Oc1ccc(F)cc1	7.22	7.02	7.22	6.40	7.30	7.19	6.73	7.86	2 to 11	2 to 11	2 to 11	2 to 11					Activity (A549 [8]): 21%; Activity (A549 [9]): 26%; Activity (A549 [10]): 19%; Activity (A549 [11]): 34%
COc1ccc(/C=C\c2cc(OC)c(OC)c(OC)c2)cc1O [COMBRETASTATIN A4]			5.68	6.89	5.40	5.47											inhibition (Bos taurus [12]): Active; Activity (Bos taurus [13]): 22 µM; Activity (A549 [14]): 15%; Activity (A549 [15]): 21%; Activity (A549 [16]): 22%; Activity (A549 [17]): 43%
COc1ccc(/C=C\c2cc(OC)c(OC)c(OC)c2)cc1NC(=O)Oc1cc(C)cc(C)c1	6.59	6.68	6.89	5.81	6.21	6.74	6.82	7.92									Activity (A549 [18]): 22%; Activity (A549 [19]): 16%; Activity (A549 [20]): 38%
COc1ccc(/C=C\c2cc(OC)c(OC)c(OC)c2)cc1NC(=O)Oc1cccc(Br)c1	7.95	8.23	8.59	6.80	8.25	7.92	7.80	7.87	2 to 11	2 to 11	2 to 11	2 to 11	90	51	Dose-dependent effect		inhibition (Bos taurus [12]): Active; Activity (A549 [21]): 17%; Activity (A549 [22]): 30%; Activity (A549 [23]): 12%; Activity (A549 [24]): 39%
COc1ccc(/C=C\c2cc(OC)c(OC)c(OC)c2)cc1NC(=O)Oc1ccc(Br)cc1	8.46	9.12	8.92	6.82	8.30	8.15	7.72	8.39	2 to 11	2 to 11	2 to 11	2 to 11	95	36	Dose-dependent effect	Active	Activity (A549 [29]): 19%; Activity (A549 [30]): 32%; Activity (A549 [31]): 17%; Activity (A549 [32]): 33%; Activity (HMEC-1 [33]): Dose-dependent effect
COc1ccc(/C=C\c2cc(OC)c(OC)c(OC)c2)cc1NC(=O)Oc1cccc(C(F)(F)F)c1	7.89	7.25	7.40	6.89	8.40	7.80	7.37	7.85									Activity (A549 [34]): Active; Activity (A549 [35]): Active; Activity (A549 [36]): 16%; Activity (A549 [37]): 28%; Activity (A549 [38]): 15%; Activity (A549 [39]): 41%
COc1cccc(OC(=O)Nc2cc(/C=C\c3cc(OC)c(OC)c(OC)c3)ccc2OC)c1	8.32	8.14	8.47	6.80	8.31	8.30	8.09	8.10					92	49	Dose-dependent effect	Active	Activity (A549 [21]): 17%; Activity (A549 [22]): 31%; Activity (A549 [23]): 16%; Activity (A549 [24]): 36%; Activity (HMEC-1 [33]): Dose-dependent effect
COc1ccc(/C=C\c2cc(OC)c(OC)c(OC)c2)cc1NC(=O)Oc1ccccc1Cl	7.75	8.00	8.30	6.89	8.43	7.30	7.39	7.86	2 to 11	2 to 11	2 to 11	2 to 11					Activity (A549 [34]): Active; Activity (A549 [35]): Active; Activity (A549 [36]): 16%; Activity (A549 [37]): 29%; Activity (A549 [38]): 12%; Activity (A549 [39]): 43%
COc1ccc(/C=C\c2cc(OC)c(OC)c(OC)c2)cc1NC(=O)Oc1cccc(C)c1	7.34	7.60	7.64	6.41	7.17	7.30	7.40	7.87									Activity (A549 [8]): 22%; Activity (A549 [9]): 26%; Activity (A549 [10]): 16%; Activity (A549 [11]): 36%
COc1ccc(/C=C\c2cc(OC)c(OC)c(OC)c2)cc1NC(=O)Oc1ccc(Cl)c(C)c1	7.94	8.09	8.48	6.85	9.40	8.15	8.08	8.40					90	41	Dose-dependent effect	Active	inhibition (Bos taurus [12]): Active; Activity (A549 [40]): 18%; Activity (A549 [41]): 22%; Activity (A549 [42]): 36%; Activity (HMEC-1 [33]): Dose-dependent effect
COc1cc2c(c(OC)c1OC)-c1ccc(OC)c(=O)cc1[C@@H](NC(C)=O)CC2																Active	
